Source: patent publication US20230364230A1, “COMBINATION THERAPY FOR CANCER” (ENGMAB SÀRL, priority 2020, published 2023)

Test system: H929 target cells
Assay: Protein 1 induced ADCC after pretreatment of both PBMC and H929 target cells
Type: cell-based, human
Procedure: PBMCs from a healthy donor were pre-incubated for 48 hours in the presence of CC-92480 or CC-220 (iberdomide) or a DMSO control. Additionally, H929 cells were also pre-incubated separately from the PBMCs for 48 hours with CELMoD. For CC-92480, PBMC and H929 were incubated in 0.1 nM, 1 nM or 10 nM concentrations. For CC-220, cells were incubated in 1 nM or 10 nM concentrations. Cells were also pre-incubated in with a DMSO control. After pretreatment, PBMC and H929 were combined based on their matched treatments and incubated for an additional 18 hours or overnight in the presence of a dose range of Protein 1, 0 nM to 10 nM. Samples were analyzed via flow cytometry for H929 depletion. Specific lysis was calculated as following: (1−((test sample H929 count)/(H929 count in DMSO control without PBMC and without Protein 1)))*100. PBMC and H929 cells were pretreated separately with varying doses of CC-92480 (FIG. 14A) or CC-220 (FIG. 14B) or a DMSO control for 48 hours. After pretreatment, PBMCs and H929 target cells were combined and co-cultured overnight with a dose range of Protein 1 at 0 nM to 10 nM. H929 cell depletion was analyzed by flow cytometry. […] Pretreatment of both PBMC and H929 target cells with CC-92480 or CC-220 (iberdomide) enhanced Protein 1 induced ADCC.

## O=C1CC[C@H](N2Cc3c(OCc4ccc(CN5CCOCC5)cc4)cccc3C2=O)C(=O)N1 [CC-220, (S)-3-(4-((4-(Morpholinomethyl)benzyl)oxy)-1-oxoisoindolin-2-yl)piperidine-2,6-dione]
H929 target cells pretreated 48 hours, most notably at Protein 1 0.01-0.1 nM
  susceptibility of H929 target cells to lysis: more susceptible to lysis
PBMC and H929 pretreated separately 48 hours, Protein 1 0 nM to 10 nM
  Protein 1 induced ADCC (H929 cell depletion): enhanced
